US10179120B2, “Dosage regimen of ferric trimaltol” (Iron Therapeutics Holdings AG, priority 2014, dated 2019)

How the values were obtained:
Type in all cases: in vivo, human
[1] = Example 2: open-label, randomised, single and repeat dose Phase I pharmacokinetic study in subjects with iron deficiency; conditions: for reticulocyte haemoglobin, Mean change: baseline to day 8; for Transferrin saturation above baseline / mean serum total iron concentration above baseline: 6 h postdose
Experimental: These studies were primarily pharmacokinetic and conducted in subjects with iron deficiency having active inflammatory disease or acute chronic inflammation. An open-label, randomised, single and repeat dose parallel group Phase I pharmacokinetic study was carried out to evaluate the effect of single and repeated twice daily (bid) oral doses of ST10 at 30 mg, 60 mg and 90 mg for 8 days.
24 subjects with iron deficiency (with or without anaemia) were randomly allocated to one of the three ST10 dose groups as follows:
Group 1: 9 subjects received ST10, 30 mg twice daily for 7 days (days 1-7) plus a final 30 mg dose on the morning of day 8.
Group 2: 8 subjects received ST10, 60 mg twice daily for 7 days (days 1-7) plus a final 60 mg dose on the morning of day 8.
Group 3: 7 subjects received ST10, 90 mg twice daily for 7 days (days 1-7) plus a final 90 mg dose on the morning of day 8.
On day 1, following fasting for at least 1.5-2 hours beforehand, ST10 was administered (30 mg, 60 mg or 90 mg) and blood samples collected over the following 6 h for analysis. 60 mg was administered as two 30 mg capsules and 90 mg was administered as three 30 mg capsules, both as a single dose. Subjects continued dosing with ST10 on the evening of day 1 then every morning and evening for the next 6 days (Days 2 to 7).
On day 8 following fasting for at least 1.5-2 hours beforehand the last dosing of ST10 was administered (30 mg, 60 mg or 90 mg) and blood samples collected over the following 6 h for analysis.
On Days 1 and 8 blood samples were collected predose (0 h=time of ST10 dose) and at 5 minutes (for NTBI only), 15 minutes, 30 minutes, 45 minutes, and 1, 1.5, 2, 3, 4 and 6 h postdose.
Serum concentrations of transferrin, total iron binding capacity (TIBC), ferritin and soluble transferrin receptor; and reticulocyte haemoglobin concentrations (CHr) in whole blood were measured by central laboratories using appropriately validated methods.
These studies used transferrin saturation and total serum iron as measurements of iron uptake from the gut into the transport mechanisms. In addition serum ferritin was used as a measure of iron storage status at the end of the dosing period; all of these measurements are standard and well recognised.
One subject in the 60 mg dose group prematurely withdrew from the study on Day 7, so full profiles of all serum iron parameters were available in the 30 mg dose group for 9 subjects (days 1 and 8), in the 60 mg dose group 8 subjects on day 1 and for 7 subjects on day 8, and in the 90 mg dose group for 7 subjects (days 1 and 8).

[2] = Example 1: treatment with 30 mg ST10 twice daily for up to 64 weeks; conditions: 30 mg twice daily for up to 64 weeks, 109 subjects
Experimental: 109 of the 128 subjects were treated with 30 mg ST10 twice daily for up to 64 weeks.

[3] = Example 1: 12-week placebo-controlled study of ST10 30 mg twice daily in IDA patients with IBD
Experimental: 128 patients suffering from IDA were randomised. Of this group […] were suffering from Crohn's disease and 53 were suffering from ulcerative colitis. All had mild to moderate disease activity and anaemia associated with IBD which was measured according to low haemoglobin levels ([…] for women and 13 g/dL (male) and were intolerant of ferrous iron, or it could not be used. There were no restrictions on the use of gastric pH modifying agents or medications.
60 patients were treated with ST10 at a 30 mg dose twice daily, before breakfast and prior to sleep on an empty stomach for a period of 12 weeks.
60 patients received a matched placebo capsule and were treated in the same way for the same period. Withdrawal from the study before 12 weeks occurred in seven ST10 subjects and nine placebo subjects. 87% of subjects completed 12 weeks of treatment.

Substance: ferric trimaltol [ST10]
- reticulocyte haemoglobin, Baseline ([1]; 30 mg bid): 33.6
- reticulocyte haemoglobin, Mean change ([1]; 30 mg bid): 0.9
- reticulocyte haemoglobin, Day 8 ([1]; 30 mg bid): 34.6
- reticulocyte haemoglobin, Baseline ([1]; 60 mg bid): 31.0
- reticulocyte haemoglobin, Mean change ([1]; 60 mg bid): 3.3
- reticulocyte haemoglobin, Day 8 ([1]; 60 mg bid): 34.1
- reticulocyte haemoglobin, Baseline ([1]; 90 mg bid): 30.8
- reticulocyte haemoglobin, Mean change ([1]; 90 mg bid): 3.0
- reticulocyte haemoglobin, Day 8 ([1]; 90 mg bid): 33.9
- Transferrin saturation above baseline ([1]; Day 1, 30 mg dose group): 17.0%
- mean serum total iron concentration above baseline ([1]; Day 1, 30 mg dose group): 11.8 µmol/L
- Transferrin saturation above baseline ([1]; Day 1, 60 mg dose group): 47.3%
- mean serum total iron concentration above baseline ([1]; Day 1, 60 mg dose group): 33.0 µmol/L
- Transferrin saturation above baseline ([1]; Day 1, 90 mg dose group): 33.3%
- mean serum total iron concentration above baseline ([1]; Day 1, 90 mg dose group): 24.3 µmol/L
- Transferrin saturation, average maximum value ([1]; Day 1, 30 mg dose group): 45.6%
- serum total iron concentration, average maximum ([1]; Day 1, 30 mg dose group): 32.3 µmol/L
- Transferrin saturation, average maximum value ([1]; Day 1, 60 mg dose group): 69.8%
- serum total iron concentration, average maximum ([1]; Day 1, 60 mg dose group): 49.1 µmol/L
- Transferrin saturation, average maximum value ([1]; Day 1, 90 mg dose group): 67.3%
- serum total iron concentration, average maximum ([1]; Day 1, 90 mg dose group): 48.7 µmol/L
- Mean serum ferritin ([1]; day 1, 30 mg dose group): around 15 μg/L
- Mean serum ferritin ([1]; day 1, 60 mg dose group): ~10 µg/L
- Mean serum ferritin ([1]; day 1, 90 mg dose group): ~13 µg/L
- Mean serum ferritin ([1]; day 8, 30 mg dose group): ~22 µg/L
- Mean serum ferritin ([1]; day 8, 60 mg dose group): ~22 µg/L
- Mean serum ferritin ([1]; day 8, 90 mg dose group): ~32 µg/L
- tolerability ([1]; doses of 30 mg and above): well tolerated
- subjects with adverse reactions [2]: 23%
- improvement of haemoglobin levels ([3]; 30 mg twice daily, 8 weeks, p<0.0001): 1.75 g/dL
- subjects with adverse events (mainly gastrointestinal) ([3]; 30 mg twice daily, 12 weeks): 38%
- subjects with normalised haemoglobin levels ([3]; 30 mg twice daily, by week 12): More than 65%
- tolerability ([3]; 30 mg twice daily, duration of the treatment): well tolerated
- Mean Hb increase from baseline to Week 12 ([3]; 30 mg twice daily, empty stomach, 12 weeks): 2.26 g/dL
- improvement of haemoglobin levels ([3]; 30 mg twice daily, week 4, p<0.0001): 1.05 g/dL
- mean Hb at Week 12 ([3]; 30 mg twice daily, week 12): 13.20 g/dL
- mean improvement in Hb, change from baseline compared to placebo ([3]; 30 mg twice daily, week 12, p<0.0001): 2.25 g/dL
- mean Hb at baseline ([3]; ST10-treated subjects, baseline): 11.10 g/dL
- blackened stools ([3]; patients in the study of Example 1): did not report blackened stools
